The record followed here is ChEMBL document CHEMBL1201862, “PubChem BioAssay data set” (2004).

Some test systems named below: HCT-116; HL-60; HOP-62; HT-29; Hs-578T; IGROV-1; K562; MDA-MB-231; NCI-H522; PC-3; RPMI-8226; SK-MEL-2; SNB-75; SR; SW-620; TK-10; U-251; UO-31; A498; UACC-62.
Test in all cases: NCI tumour cell line growth inhibition, 48 h

The structures appear in SMILES notation. Structures can show the parent of a compound that is named as a salt.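 96-well plates; 48 h exposure; 5 concentrations. Endpoints by linear interpolation between flanking doses. Not reached: highest tested concentration assigned. GI50 = concentration required for 50% inhibition of growth.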 Active and inactive are the calls of the source. No stated cut-off is given here; in the data, active = GI50 up to about 1.1 µM and inactive = higher.

For `CN(C)CCOc1ccc(/C(=C(/CCCl)c2ccccc2)c2ccccc2)cc1` [TOREMIFENE CITRATE], the GI50 in the assay with HCT-116 was 16.7 µM (inactive); with HL-60, 5.13 µM (inactive); in the assay on HOP-62, 15.5 µM (inactive); in the assay with HT-29 it was 5.81 µM (inactive); in the assay on Hs-578T, 17.2 µM (inactive); with IGROV-1 it was 21.4 µM (inactive). For the same compound, the GI50 with K562 was 11.5 µM (inactive); in the assay with MDA-MB-231, 16.4 µM (inactive); in the assay with NCI-H522, 16.5 µM (inactive); in the assay with PC-3, 16.4 µM (inactive); in the assay on RPMI-8226 it was 4.45 µM (inactive); in the assay with SK-MEL-2, 15.5 µM (inactive). Moreover, the GI50 is 11.9 µM (inactive) in the assay on SNB-75; 3.23 µM (inactive) in the assay on SR; 16.5 µM (inactive) with SW-620; 15.3 µM (inactive) in the assay with TK-10; 17.8 µM (inactive) with U-251; 16.7 µM (inactive) in the assay with UO-31.
Turning to `Cc1cccc(NC(=S)Nc2ccc(Cl)cc2)n1`, the GI50 in the assay on A498, in the assay with HCT-116, in the assay with HL-60, with HOP-62, with HT-29 and in the assay on Hs-578T was > 100 µM (inactive) each time. For the same compound, the GI50 in the assay with IGROV-1, in the assay with K562, with MDA-MB-231, in the assay with PC-3, in the assay with RPMI-8226 and in the assay on SK-MEL-2 was > 100 µM (inactive) throughout. The GI50 in the assay on SNB-75, in the assay on SR, in the assay on SW-620, in the assay with TK-10, in the assay with U-251 and with UACC-62 was > 100 µM (inactive) each time. Further, the GI50 in the assay with UO-31 is > 100 µM (inactive).
Consider `Oc1ccc(-c2nc(-c3cccnc3)c(-c3ccc(Cl)cc3)[nH]2)cc1`, for which the GI50 in the assay on HCT-116 was 13.4 µM (inactive); in the assay on HL-60 it was 6.95 µM (inactive); in the assay with HOP-62, 16.9 µM (inactive); in the assay with HT-29, 15.2 µM (inactive); in the assay on Hs-578T it was 19.4 µM (inactive); with IGROV-1, 10.9 µM (inactive). The GI50 in the assay with K562 was 10.5 µM (inactive); in the assay with MDA-MB-231, 16.2 µM (inactive); in the assay with NCI-H522, 10.3 µM (inactive); in the assay with PC-3 it was 5.58 µM (inactive); in the assay with RPMI-8226 it was 3.47 µM (inactive); in the assay on SK-MEL-2, 18.2 µM (inactive). Besides, the GI50 with SNB-75 is 7.46 µM (inactive); in the assay with SR it was 5.43 µM (inactive); in the assay on SW-620, 14.6 µM (inactive); with TK-10, 13.3 µM (inactive); in the assay with U-251, 14.3 µM (inactive); in the assay with UACC-62, 12.9 µM (inactive). The GI50 in the assay with UO-31 was 10.8 µM (inactive).
Turning to `COc1cc(-c2ccccc2)cn2c1nc1ccccc12`, the GI50 with HCT-116 is 20.9 µM (inactive); in the assay on HL-60, 15.6 µM (inactive); in the assay with HOP-62, 19.9 µM (inactive); in the assay with HT-29, 17.3 µM (inactive); in the assay with Hs-578T, 27.6 µM (inactive); with IGROV-1, 25.2 µM (inactive). Also, the GI50 was 25.2 µM (inactive) in the assay with K562; 21.8 µM (inactive) in the assay with MDA-MB-231; 16.5 µM (inactive) with NCI-H522; 18.8 µM (inactive) with PC-3; 20.9 µM (inactive) with RPMI-8226; 22.1 µM (inactive) with SK-MEL-2. Besides, the GI50 was 17.6 µM (inactive) with SNB-75; 29.2 µM (inactive) in the assay with SR; 35 µM (inactive) in the assay on SW-620; 20 µM (inactive) in the assay on U-251; 18.7 µM (inactive) in the assay on UACC-62; 14.8 µM (inactive) with UO-31.
Turning to `OCC(O)C(O)C(C=NNc1ncnc2ccc(Br)cc12)=NNc1ncnc2ccc(Br)cc12` (stereo unspecified), the GI50 was 26 µM (inactive) in the assay on A498; 0.404 µM (active) in the assay with HCT-116; 0.325 µM (active) with HL-60; 5.12 µM (inactive) in the assay with HOP-62; 0.662 µM (active) with HT-29; 41.9 µM (inactive) in the assay with Hs-578T. Also, the GI50 was 1.45 µM (inactive) with IGROV-1; 2.58 µM (inactive) in the assay with K562; 1.26 µM (inactive) in the assay on MDA-MB-231; 0.404 µM (active) in the assay with NCI-H522; 4.73 µM (inactive) with PC-3; 2.26 µM (inactive) with SK-MEL-2. Besides, the GI50 in the assay on SNB-75 was 5.82 µM (inactive); in the assay on SR, 0.579 µM (active); in the assay with TK-10, 13.2 µM (inactive); in the assay with U-251 it was 1.28 µM (inactive); in the assay with UO-31, 9.71 µM (inactive).
With `COc1ccc2c(c1)/C(=C(\C(Cl)=C(\Cl)N1CCCCC1)[N+](=O)[O-])N2`, the GI50 in the assay on A498, with HCT-116, with HL-60, with HOP-62, in the assay with HT-29 and in the assay with Hs-578T was > 100 µM (inactive) throughout. Also, the GI50 in the assay on IGROV-1 is 90.6 µM (inactive); in the assay with K562 it was 42.1 µM (inactive); in the assay with MDA-MB-231 it was > 100 µM (inactive); with NCI-H522, 39.4 µM (inactive); in the assay on PC-3, > 100 µM (inactive); in the assay with SNB-75 it was > 100 µM (inactive). The GI50 was 27.1 µM (inactive) in the assay with SR; 71 µM (inactive) in the assay on SW-620; > 100 µM (inactive) with TK-10; > 100 µM (inactive) with U-251; > 100 µM (inactive) with UACC-62; > 100 µM (inactive) with UO-31.
`COc1ccc(/C=C2\N=C(c3ccccc3)OC2=O)cc1OC(C)=O`: the GI50 is > 100 µM (inactive) in the assay with A498; 58.9 µM (inactive) with HCT-116; 41.1 µM (inactive) with HL-60; 94.2 µM (inactive) with HOP-62; 47.3 µM (inactive) with HT-29; 26.3 µM (inactive) with Hs-578T. In addition, the GI50 was 82.8 µM (inactive) with IGROV-1; 44.9 µM (inactive) with K562; 46.5 µM (inactive) with MDA-MB-231; 31.1 µM (inactive) in the assay with PC-3; 32 µM (inactive) in the assay on RPMI-8226; 27.5 µM (inactive) in the assay with SK-MEL-2. The GI50 is 52.5 µM (inactive) with SNB-75; 15.2 µM (inactive) in the assay with SR; 51.4 µM (inactive) in the assay on SW-620; > 100 µM (inactive) in the assay on TK-10; 39.8 µM (inactive) in the assay with U-251; > 100 µM (inactive) in the assay with UACC-62. Moreover, the GI50 in the assay on UO-31 is 58.7 µM (inactive).
In the case of `Cn1c(=O)oc2cc(C(=S)N3CCC(Cc4ccccc4)CC3)ccc21`, the GI50 in the assay with A498, in the assay on HCT-116, with HL-60, with HOP-62, with HT-29 and in the assay on Hs-578T was > 100 µM (inactive) in each case. Moreover, the GI50 in the assay with IGROV-1 was > 100 µM (inactive); in the assay with K562, 61.7 µM (inactive); in the assay with MDA-MB-231, > 100 µM (inactive); in the assay on PC-3, > 100 µM (inactive); in the assay on RPMI-8226, 62.1 µM (inactive); in the assay on SK-MEL-2 it was > 100 µM (inactive). Also, the GI50 with SNB-75 was 55.6 µM (inactive); in the assay on SR, 72.3 µM (inactive); in the assay on SW-620 it was > 100 µM (inactive); with TK-10, > 100 µM (inactive); with U-251 it was 64.7 µM (inactive); in the assay on UACC-62, > 100 µM (inactive).
